From PMC6045489 (ACS Omega, 2018)

Assays:
[1] = tested on: DU-145 prostate cancer cell line; experiment: Sulforhodamine B antiproliferative assay, DU-145; type: cell-based; conditions: Homo sapiens, DU-145, read-out: IC50 DU-145, mean ± SEM
[2] = tested on: A549 lung cancer cell line; experiment: Sulforhodamine B antiproliferative assay, A549; type: cell-based; conditions: Homo sapiens, A549, read-out: IC50 A549, mean ± SEM
[3] = tested on: HEK-293 primary human embryonic kidney cell line; experiment: Sulforhodamine B assay, control cell line HEK-293; type: cell-based; conditions: HEK293, read-out: IC50 HEK-293, mean ± SEM, normal control cells
[4] = tested on: MDA-MB-231 human breast adenocarcinoma cell line; experiment: Sulforhodamine B antiproliferative assay, MDA-MB-231; type: cell-based; conditions: MDA-MB-231, read-out: IC50 MDA-MB-231, mean ± SEM
[5] = tested on: HeLa cervical cancer cell line; experiment: Sulforhodamine B antiproliferative assay, HeLa; type: cell-based; conditions: Homo sapiens, read-out: IC50 HeLa, mean ± SEM
[6] = tested on: DU-145 cells; experiment: Immunoblot of apoptotic proteins; type: cell-based, human; conditions: DU-145, immunoblot, vs vehicle control
[7] = tested on: HeLa cells; conditions: read-out: IC50 HeLa (reported literature value); cited from earlier work

Compound	IC50 [1]	IC50 [2]	IC50 [3]	IC50 [4]	IC50 [5]	Annexin V protein expression [6]	BAX protein expression [6]	IC50 [7]
CC(O)[C@@H]1CCCN1C(=O)[C@@H]1CCCN1C(=O)OC(C)(C)C (mixture of isomers) [Compound 22, (2S)-tert-Butyl 2-((2S)-2-(1-Hydroxyethyl)pyrrolidine-1-carbonyl)pyrrolidine-1-carboxylate]	2 ± 0.8 µM	0.5 ± 0.03 µM	3390 ± 123 µM	8 ± 0.4 µM	26 ± 3 µM	–	–	–
C#CCCCC[C@H](C)C[C@@H](C)C(=O)O [Compound 2, (2R,4S)-2,4-Dimethyldec-9-ynoic Acid]	123 ± 20 µM	167 ± 12 µM	259 ± 35 µM	164 ± 20 µM	122 ± 14 µM	–	–	–
CC(=O)[C@@H]1CCCN1C(=O)[C@@H]1CCCN1C(=O)OC(C)(C)C [Compound 21, tert-Butyl(S)-2-((S)-2-acetylpyrrolidine-1-carbonyl)pyrrolidine-1-carboxylate]	1 ± 0.9 µM	5 ± 0.4 µM	5440 ± 245 µM	3 ± 0.1 µM	5 ± 1 µM	–	–	–
C#CCCCC[C@H](C)C[C@@H](C)C(=O)N1C(=O)OC[C@H]1Cc1ccccc1 [Compound 17, (R)-4-Benzyl-3-((2R,4S)-2,4-dimethyldec-9-ynoyl)oxazolidin-2-one]	188 ± 29 µM	158 ± 15 µM	293 ± 16 µM	102 ± 14 µM	160 ± 10 µM	–	–	–
COc1cccc2c1C(=O)c1c(O)c3c(c(O)c1C2=O)C[C@@](O)(C(=O)CO)C[C@@H]3O[C@H]1C[C@H](N)[C@H](O)[C@H](C)O1 [doxorubicin, reference compound]	0.5 ± 0.2 µM	1 ± 0.1 µM	39 ± 2 µM	1 ± 0.1 µM	–	highly expressed	highly expressed	–
jahanyne	–	–	–	–	–	–	–	1.8 µM
